From patent US9539316B2, “Blood stage malaria vaccine” (priority 2011, dated 2017)

What was measured:
P. vinckei = format: in vivo, A/J mice; details: for protection against heterologous challenge: 3 doses of 10^6 P. chabaudi pRBC (ring stages) i.v. 2 weeks apart, compound 2 μM, 40 minutes, 37° C., challenge 10^4 P. vinckei (FIG. 7B)
P. chabaudi [1] = format: in vivo, A/J mice; details: for protection against homologous challenge: 3 doses of 10^6 pRBC (ring stages) i.v. 2 weeks apart, compound 2 μM, 40 minutes, 37° C., challenge 10^5 P. chabaudi (FIG. 7A)
P. chabaudi [2] = details: 500 μL blood of mice immunized with 10^7 centanamycin (2 μM or 200 nM) attenuated pRBC taken at day 42 post-innoculation, transferred to naïve reporter mice

COc1cc2cc(C(=O)Nc3cc(O)c4ncc(C)cc4c3CCCl)[nH]c2c(OC)c1OC [AS-VIII-104]
protection against heterologous challenge (P. vinckei): performed similarly to centanamycin

COc1cc2cc(C(=O)Nc3cc(N)c4ccccc4c3CCCl)[nH]c2c(OC)c1OC [centanamycin]
parasitaemia by day 11 post-challenge (P. chabaudi [1]; 3 doses of 10^4, 10^5 or 10^6 pRBC, each group, centanamycin 2 μM (FIG. 4)): little or no parasitaemia | protection against homologous challenge (P. chabaudi [1]): lower | parasitaemia compared between dose groups, e.g. at day 9 post-challenge (P. chabaudi [1]; 3 doses of 10^6 pRBC versus 10^4 and 10^5, centanamycin 2 μM (FIG. 4)): lowest | vaccination efficacy, 200 nM attenuation (P. chabaudi [1]; 3 doses or a single dose of 10^4 P. chabaudi pRBC treated with 200 nM centanamycin (FIG. 3)): effectively vaccinated | vaccine efficacy, 3 doses (P. chabaudi [1]; centanamycin attenuated P. chabaudi pRBC, 3 doses of vaccine): work effectively | clinical score data (P. chabaudi [1]; immunization with 10^6 centanamycin-treated parasites and challenge (FIG. 6)): protected not only from death and high parasitemia but also from symptoms | immunity to virulent challenge (parasitemia) (P. chabaudi [1]; pRBC treated in vitro with 2 μM centanamycin, 5 doses i.v. 1 week apart, 10^4 parasites each, challenge 10^5 homologous WT pRBC): induces immunity to virulent challenge | protection, single dose (P. chabaudi [1]; single dose of 10^4 pRBC, centanamycin 2 μM, challenge 10^5 pRBC 35 days after vaccination (FIG. 2)): induces protection in most animals | parasitaemia at day 8 and 9 post-challenge versus 2 μM attenuated parasites (P. chabaudi [1]; single dose of 10^7 pRBC attenuated using 200 nM centanamycin (FIG. 5)): more significant parasitaemia | recovery by day 13 post-innoculation (P. chabaudi [1]; single dose of 10^7 pRBC attenuated using 200 nM centanamycin, compared with 2 μM (FIG. 5)): recovered to the same extent | parasites detected by microscopy (P. chabaudi [2]): no parasites detected

COc1cc2cc(C(=O)N3CC(CCl)c4c3cc(O)c3ccoc43)[nH]c2c(OC)c1OC (stereo not shown) [tafuramycin A, seco-iso-cyclopropylfurano[2,3-e]indoline-TMI]
protection against homologous challenge (P. chabaudi [1]): near complete protection | peak parasite density (P. vinckei; 1 mouse of the group, P. vinckei challenge): approximately 20% | protection against heterologous challenge (P. vinckei): very significant protection | recovery by day 12 (P. vinckei; P. vinckei challenge, all animals): all the animals had fully recovered
